Patent US20260250269A1, “APOPTOSIS INHIBITOR SALTS FOR CANCER” (priority 2022, published 2026)

Experiments:
[1] = pH of about 7.4
[2] = Photostability test (ICH Option 1, ID65 light)
Procedure: Purity via HPLC, XRPD, and appearance inspection were performed before and after light exposure to determine photostability of the two compounds.
Light source—ICH Option 1 light source standard was adopted. ID65 light, equivalent indoor indirect daylight standard, with 250 W/m^2 light source intensity was used.
Total light exposure and light exposure time−total light exposure was set to 1.44 million lux light quantity (1000 lux×24 h×60 d=1,440,000 lux light quantity). Light stability testing box with ID65 light source of 250 W/m^2 intensity was adopted. According to ICH Option 1 standard, 21.8 hours light exposure could reach 1.2 million lux light quantity. Therefore, 26.2 hours light exposure is needed to reach 1.44 million lux quantity.
Testing—Accurately weight 0.5 g of the monobromide and the pamoate, place in petri dishes (covered with clear wrap film) and spread into a layer no more than 3 mm thickness, separately. Samples were put into light stability testing box, and received total amount of light exposure not less than 1.44 million lux light quantity (ID65 light, 250 W/m^2, 26.2 hours, 25° C., 60% relative humidity). After light exposure, samples were removed for characterization, including appearance inspection, XRPD and purity via HPLC.

[3] = Body weight in SU-DHL-10 xenografted mice; settings: for Mean Body Weight ± SEM: Group 4: Form A, 11.2 mg/kg i.m. Day 0, 7, 14
[4] = tested on: SU-DHL-10 human diffuse large B cell lymphoma xenograft; assay: Anti-tumor activity against SU-DHL-10 xenograft; type: in vivo, BALB/c nude mice
Procedure: For the monobromide continuous i.v. infusion group, the monobromide was dissolved with physiological saline to prepare 12.12 mg/mL clear solution.
For the monobromide i.p. injection group, the monobromide was dissolved with physiological saline to prepare 0.41 mg/mL clear solution. The dose volume was determined by the mice′ body weight collected on the morning of dosing day, calculated by the formula: dose volume (10 mL/kg)×body weight.
For the pamoate i.m. injection group, the pamoate salt was mixed with appropriate volume of vehicle solution (0.5% CMC-Na (viscosity 400-800 cps, CAS No. 9004-32-4), 0.2% Tween-80 in 10 mM pH 7.4 PBS saline) to get a uniform suspension after 15 min sonication, with final concentration of 5.6 mg/mL, similar to the procedure described in Example 14. The dose volume was determined by the mice′ body weight collected on the morning of dosing day, calculated by the formula: dose volume (2 mL/kg)×body weight.
Human diffuse large B cell lymphoma cell line SU-DHL-10 was obtained from Cobioer Biotechnology Co., Ltd (China). The cells were cultured at 37° C. with 5% CO2 in RPMI-1640 (Hyclone, USA) supplemented with 10% heat inactivated fetal bovine serum (Gibco, USA) and 1% GlutaMAX (Gibco, USA). The cells were collected, suspended in PBS at 2×10^8 cells/mL, and then mixed with the equivalent volume of Matrigel® Basement Membrane Matrix (Corning, USA).
Six-week-old female BALB/c-nude mice were purchased from SPF Biotechnology Co., Ltd. (Beijing, China). They were maintained on a standard diet and water throughout the experiments under specific pathogen-free conditions. The cells were cultured in vitro and 0.1×10^8 cells/0.1 mL/mouse were grafted subcutaneously into the flank of NOD-SCID (NVSG) mice (Beijing Viewsolid Biotech Co. LTD), 6-week-old. When the tumor reached about 1 cm in diameter, tumor-bearing mice were sacrificed and tumors were removed and sliced into small fragments (approximately 3×3×3 mm^3/fragment) and re-inoculated into BALB/c nude mice. The mice with a tumor volume (length×width^2×0.5) of 99.28 to 247.10 mm^3 were divided into four groups randomly, using Study Director Software (Studylog Systems, Inc, Version 3.1.399.22, USA) to minimize intragroup and intergroup tumor volume variation.
The first day of administration was designated day 0, and observation continued until day 35. Each group was treated as follows (Table 15).
The vehicle control group received i.m. injection of vehicle solution on day 0, 7 and 14 (Group 1). For 21-day continuous i.v. infusion, an osmotic pump containing the monobromide was implanted in the dorsum of each animal while under anesthesia on day 0, with daily dose of […], approximately 1.6 mg/kg/day (Group 2). The monobromide i.p. injection group was administrated referring to FIVE-DAY-ON, TWO-DAY-OFF procedure on day 0-4, 7-11 and 14-18 (Group 3) per Minoda et. al, Antitumor effect of YM155, a novel small-molecule survivin suppressant, via mitochondrial apoptosis in human MFH/UPS, International Journal of Oncology, 2015, 47:891-899. For the pamoate i.m. injection group, drug suspension was administrated once per week at 11.2 mg/kg, approximately 7 times daily dosage of the monobromide i.v. infusion group, on day 0, 7 and 14 (Group 4).

Caspase-3 = Caspase-3 protein expression in xenografted SU-DHL-10 tumor (Western blot); type: in vivo, mouse; settings: Form A, single i.m. injection 11.2 mg/kg, 24 hours post dosing, versus vehicle
Procedure: The pamoate was administrated via single intramuscular (i.m.) injection to SU-DHL-10 xenografted mice to examine the effect of the pamoate on c-Myc expression level in tumor at the 24-hour time point post injection.
The pamoate was mixed with appropriate volume of vehicle solution (0.5% carboxymethylcellulose sodium (CMC-Na, viscosity 400-800 cps, CAS No. 9004-32-4, Sigma-Aldrich, USA) and 0.2% Tween-80 in 10 mM pH 7.4 phosphate buffer saline (PBS)) to get a uniform suspension after 15 min sonication, with final concentration of 5.6 mg/mL. The dose volume was determined by the mice′ body weight collected on the morning of dosing day, calculated by the formula: dose volume (2 mL/kg)×body weight.
Human diffuse large B cell lymphoma cell line SU-DHL-10 was obtained from Cobioer Biotechnology Co., Ltd (China). […]
The tumor was excised with scissors, resuspended in cold cell lysis buffer containing 20 mM Tris (pH7.5), 150 mM NaCl, 1% Triton X-100, 2 mM AEBSF, […] Aprotinin, 130 μM Bestatin, 14 μM E64, 10 μM Leupeptin, 5 mM sodium fluoride, 1 mM sodium pyrophosphate, 1 mM β-glycerophosphate and 1 mM sodium orthovanadate, and then homogenized with handheld homogenizer (Beyotime, China). […] Protein contents were determined using Micro BCA™ Protein Assay Kit (23235, Thermo Scientific, USA). […] Visualization was carried out using the Enhanced Chemi-luminescence Kit (Beyotime, China).

[5] = ID65 light, 250 W/m^2, 25° C./60% RH (ICH Option 1), 26.2 hours
[6] = Initial, irradiation time 0 hours
[7] = Group 4: Form A, 11.2 mg/kg i.m. Day 0, 7, 14, Day 21
[8] = Group 4: Form A, 11.2 mg/kg i.m. Day 0, 7, 14, Day 35

COCCn1c2c([n+](Cc3cnccn3)c1C)C(=O)c1ccccc1C2=O.COCCn1c2c([n+](Cc3cnccn3)c1C)C(=O)c1ccccc1C2=O.O=C([O-])c1cc2ccccc2c(Cc2c(O)c(C(=O)[O-])cc3ccccc23)c1O [pamoate salt]
Aqueous solubility [1]: less than 0.02 mg/mL
Photostability (in words) ([2]; ICH Option 1 irradiation, 26.2 hours): excellent photostability
Description [2, 5]: Purple
Purity % (HPLC) [2, 5]: 99.38%
XRPD [2, 5]: Consistent
Description [2, 6]: Purple
Purity % (HPLC) [2, 6]: 99.29%
Change in the appearance, XRPD and HPLC purity ([2]; after ICH Option 1 irradiation, 26.2 hours): no significant change
Mean Body Weight ± SEM ([3]; Day 21): 21.43 ± 0.35 ^N.S. g
Mean Body Weight ± SEM ([3]; Day 35): 22.65 ± 0.30 ^N.S. g
Body weight decrease (in words) ([3]; each group (Groups 2-4), until day 35): no statistically significant decrease in body weight
Mean Tumor Volume ± SEM ([4]; Group 4: Form A, 11.2 mg/kg i.m. Day 0, 7, 14, Day 0): 151.26 ± 23.65 mm^3
Mean Tumor Volume ± SEM ([4]; Group 4: Form A, 11.2 mg/kg i.m. Day 0, 7, 14, Day 7): 0.00 ± 0.00 mm^3
Antitumor Activity, percent inhibition of tumor growth (% inh) [4, 7]: 118.27%
Antitumor Activity, percent regression of the tumor (% reg) [4, 7]: 100%
Mean Tumor Volume ± SEM [4, 7]: 0.00 ± 0.00 mm^3
Mean Tumor Volume ± SEM ([4]; Group 4: Form A, 11.2 mg/kg i.m. Day 0, 7, 14, Day 28): 23.61 ± 23.61 **^, N.S., $ mm^3
Antitumor Activity, percent inhibition of tumor growth (% inh) [4, 8]: 98.22%
Antitumor Activity, percent regression of the tumor (% reg) [4, 8]: −19.21%
Mean Tumor Volume ± SEM [4, 8]: 180.32 ± 101.25 **^, N.S., $ mm^3
Number of CRs (complete response) [4, 8]: 3/6
Safety and efficacy (in words) ([4]; SU-DHL-10 xenograft tumor model): good safety and efficacy
Cleaved Caspase-3 expression in tumors (Caspase-3): increased
Full length Caspase-3 expression in tumors (Caspase-3): decreased
